Columns and labels:
[1] = design: method as in PMID 22488789; settings: cited from earlier work
[2] = format: binding; settings: pH 8

For cholera toxin B-subunit [Wild-type], the “Lewis-y glycan binding (result in words)” value [1] is given as “very low affinity” and the Kd [2] is given as 43 ± 8 nM.
